Results as given in US12391679B2, “Benzamide-substituted bicyclic imidazo- and pyrazolo-fused -pyridine, -pyrimide, and -pyridazine compounds for treatment of inflammatory diseases” (ONCO3R Therapeutics BV, priority 2019, dated 2025).

Each compound was assayed against T1, SIK2 (Homo sapiens, UniProt Q9H0K1) (assay: 33P radioactive kinase assay, SIK2). Settings: not given.
T1 construct: purchased ThermoFisher Scientific PV4792
Type: biochemical
Summary of the method: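 SIK1, SIK2 or SIK3 phosphorylation of AMARA peptide with [33P]-γ-ATP plus unlabeled ATP. 10-point 1/5 dilution series, 1% DMSO final; reactions stopped with phosphoric acid, filter-harvested and scintillation-counted. Percentage inhibition and average IC50 derived from dose-response curves.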
For IC50 in this document: AMARA 5 µM, 10 µM ATP.

T1 sequence (Q9H0K1 whole entry): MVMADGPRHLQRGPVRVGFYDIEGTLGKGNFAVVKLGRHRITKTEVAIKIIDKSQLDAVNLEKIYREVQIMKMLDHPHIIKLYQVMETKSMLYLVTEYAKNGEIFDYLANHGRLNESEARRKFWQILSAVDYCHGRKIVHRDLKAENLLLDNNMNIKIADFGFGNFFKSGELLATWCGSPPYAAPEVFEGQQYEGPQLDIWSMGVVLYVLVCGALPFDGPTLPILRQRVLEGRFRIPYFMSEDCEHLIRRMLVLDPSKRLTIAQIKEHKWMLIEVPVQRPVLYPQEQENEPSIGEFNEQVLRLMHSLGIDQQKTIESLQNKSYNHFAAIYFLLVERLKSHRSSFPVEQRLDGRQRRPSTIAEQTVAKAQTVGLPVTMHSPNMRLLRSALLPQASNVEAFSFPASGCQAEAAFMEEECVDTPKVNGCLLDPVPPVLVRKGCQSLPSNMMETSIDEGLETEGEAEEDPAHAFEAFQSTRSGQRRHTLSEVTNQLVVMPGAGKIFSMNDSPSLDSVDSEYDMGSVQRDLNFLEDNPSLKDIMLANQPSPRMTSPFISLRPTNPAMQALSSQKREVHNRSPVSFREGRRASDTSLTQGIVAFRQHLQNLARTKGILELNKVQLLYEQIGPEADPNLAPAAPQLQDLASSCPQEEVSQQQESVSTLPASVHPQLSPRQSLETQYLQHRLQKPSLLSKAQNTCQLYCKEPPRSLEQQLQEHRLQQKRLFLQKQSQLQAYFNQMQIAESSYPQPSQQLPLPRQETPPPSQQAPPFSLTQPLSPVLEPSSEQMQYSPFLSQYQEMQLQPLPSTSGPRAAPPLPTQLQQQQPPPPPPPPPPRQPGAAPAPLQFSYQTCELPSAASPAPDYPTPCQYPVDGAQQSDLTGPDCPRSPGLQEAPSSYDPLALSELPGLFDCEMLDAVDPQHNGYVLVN

Structure (SMILES)	IC50
COc1cc(-c2cnc3cc(C4(C#N)CC4)ccn23)cc(OC(F)F)c1C(=O)NC1CC1 [Cpd 33, 4-[7-(1-cyanocyclopropyl)imidazo[1,2-a]pyridin-3-yl]-N-cyclopropyl-2-(difluoromethoxy)-6-methoxy-benzamide]	10 to 100 nM
COc1cc(-c2cnc3cc(C(C)(C)C#N)ccn23)cc(OC(F)F)c1C(=O)NC1CC1 [Cpd 19, 4-[7-(1-cyano-1-methyl-ethyl)imidazo[1,2-a]pyridin-3-yl]-N-cyclopropyl-2-(difluoromethoxy)-6-methoxy-benzamide]	> 500 nM
CCC(C)(C#N)c1ccn2c(-c3cc(OC)c(C(=O)NC4CC4)c(OC(F)F)c3)cnc2c1 (stereo not drawn) [Cpd 27, 4-[7-(1-cyano-1-methyl-propyl)imidazo[1,2-a]pyridin-3-yl]-N-cyclopropyl-2-(difluoromethoxy)-6-methoxy-benzamide]	> 500 nM
COc1cc(-c2cnc3cc(C(C)(C)C#N)ccn23)cc(OC)c1C(=O)NC1CC1 [Cpd 28, 4-[7-(1-cyano-1-methyl-ethyl)imidazo[1,2-a]pyridin-3-yl]-N-cyclopropyl-2,6-dimethoxy-benzamide]	> 500 nM

What follows are compounds tested on LPS triggered IL-10 secretion in monocyte-derived macrophages (assay: MdM assay: LPS-triggered IL-10 (ELISA)). Settings: Macrophage; human MdM; LPS 200 ng/mL; supernatant after 2 h; maximal fold change vs LPS only, median of two or more assays; read-out: IL-10 FCmax median.
Type: cell-based
Method: SIK inhibition inhibits TNFα and increases IL-10 release in LPS triggered monocyte-derived macrophages (MdM) and dendritic cells (MdDCs) (Clark et al. 2012; Sundberg et al. 2014; Ozanne et al. 2015). This assay evaluates illustrative compounds of the invention for their inhibition of LPS-induced TNFα and LPS triggered IL-10 secretion in monocyte-derived macrophages.
PBMCs are isolated from human blood samples (buffycoats). The buffy coat is aseptically transferred into a 50 mL Falcon tube, and diluted 1/2 in PBS. Falcon tubes are filled with 20 mL Lymphoprep™, on top of which 25 mL of the buffy coat is carefully added, tubes are centrifuged for 35 min at 400 g in temperature controlled centrifuge, without brake, at 25° C. PBMCs are aspirated from the white interface layer between sample and Lymphoprep™. PBMCs are washed five times in PBS. Cells are resuspended in RPMI 1640 complete medium supplemented with 10% FBS, 1% P/S, and cell density is determined using a hematologic analyzer (Sysmex XS-500i).
PBMCs are centrifuged at 300×g for 10 min and resuspended at a density of 1.0*10^7 cells/80 μL Miltenyi buffer (PBS, pH 7.4, 1% FBS, 2 mM EDTA).
Starting from this point of the protocol all steps are performed on ice. 20 μL of CD14+ micro-beads are added per 1.0*10^7 cells, the tube is mixed and incubated for 15 min in the fridge at 4° C. Cell suspension volume is adjusted to total volume of 100 mL using Miltenyi buffer, mixed gently and subsequently centrifuged for 10 min at 300×g. Supernatant is discarded and cell pellet is resuspended in 12 mL of Miltenyi buffer.
Four LS columns are placed in the MACS Separator (magnet) from Miltenyi Biotec, and are prewet by rinsing with 3 mL of MACS buffer per column. Three mL of cell suspension is added onto the column (max 1*10^8 of labelled cells/column), and columns are subsequently washed 3 times with 3 mL of Miltenyi buffer.
The columns are removed from the magnets, and 5 mL of Miltenyi buffer are added to the column to flush out the CD14+ fraction by pushing the plunger into the column. The flushed fractions are collected in a fresh 50 mL Falcon and volume is adjusted to 30 mL using Miltenyi buffer, cells are centrifuged for 10 min at 300×g. The obtained cell pellet is resuspended in 10 mL RPMI w/o FBS, and cell density is determined using a hematologic analyser (Sysmex XS-500i). 100 000 cells are seeded per well of a 96-well plate for differentiation to MdM in RPMI 1640 medium supplemented with 10% FBS, 1% P/S and 100 ng/mL rhM-CSF. On day 5 the medium is refreshed with 100 μL RPMI 1640 medium supplemented with 10% FBS, 1% P/S and 100 ng/mL rhM-CSF.
On day 10, MdMs are triggered and compound is added.
A compound dilution plate is made in 100% DMSO by 3-fold dilution of 10 mM stock solution. An intermediate dilution plate (10× final concentration) is made by diluting the compound dilution plate 50-fold in RPMI medium.
Medium is carefully removed from cell plates using multichannel pipette, and replaced by 80 μL fresh medium. 10 μL of the 10× final concentration compound is added to the cells and incubated for 1 hour at 37° C. before addition of trigger. No trigger conditions/trigger conditions are spiked with equal final DMSO concentrations of 0.2% DMSO. 10 μL of 10×LPS (final conc. 200 ng/mL) solution are added to all wells except for the ‘no trigger wells’ where 10 μL medium is added. Supernatant is collected after 2 h (IL-10 determination) and after 20 h (TNFα determination) of LPS triggering. […]

Structure (SMILES)	maximal fold induction
COc1cc(-c2cnc3cc(C(C)(C)C#N)ccn23)cc(OC(F)F)c1C(=O)NC1CC1 [Cpd 19, 4-[7-(1-cyano-1-methyl-ethyl)imidazo[1,2-a]pyridin-3-yl]-N-cyclopropyl-2-(difluoromethoxy)-6-methoxy-benzamide]	< 1.5
COc1cc(-c2cnc3cc(C(C)(C)C#N)cnn23)cc(OC(F)F)c1C(=O)N[C@@H]1C[C@@H]1F [Cpd 228, 4-[7-(1-cyano-1-methyl-ethyl)imidazo[1,2-b]pyridazin-3-yl]-2-(difluoromethoxy)-N-[(1R,2S)-2-fluorocyclopropyl]-6-methoxy-benzamide]	< 1.5
COc1cc(-c2cnn3cc(C(C)(C)CO)ccc23)cc(OC(F)F)c1C(=O)N[C@@H]1C[C@@H]1F [Cpd 242, 2-(difluoromethoxy)-N-[(1R,2S)-2-fluorocyclopropyl]-4-[6-(2-hydroxy-1,1-dimethyl-ethyl)pyrazolo[1,5-a]pyridin-3-yl]-6-methoxy-benzamide]	< 1.5
COc1cc(-c2cnn3cc(C4(C(N)=O)CCC4)ccc23)cc(OC(F)F)c1C(=O)N[C@@H]1C[C@@H]1F [Cpd 254, 4-[6-(1-carbamoylcyclobutyl)pyrazolo[1,5-a]pyridin-3-yl]-2-(difluoromethoxy)-N-[(1R,2S)-2-fluorocyclopropyl]-6-methoxy-benzamide]	< 1.5
COc1cc(-c2cnn3cc(C(C)(C)O)ccc23)cc(OC(F)F)c1C(=O)N[C@@H]1C[C@@H]1F [Cpd 227, 2-(difluoromethoxy)-N-[(1R,2S)-2-fluorocyclopropyl]-4-[6-(1-hydroxy-1-methyl-ethyl)pyrazolo[1,5-a]pyridin-3-yl]-6-methoxy-benzamide]	1.5 to 4.5
COc1cc(-c2cnn3cc(C(C)(C)C#N)cnc23)cc(OC(F)F)c1C(=O)N[C@@H]1C[C@@H]1F [Cpd 231, 4-[6-(1-cyano-1-methyl-ethyl)pyrazolo[1,5-a]pyrimidin-3-yl]-2-(difluoromethoxy)-N-[(1R,2S)-2-fluorocyclopropyl]-6-methoxy-benzamide]	1.5 to 4.5
COc1cc(-c2cnn3cc(C4(N)CCC4)ccc23)cc(OC(F)F)c1C(=O)N[C@@H]1C[C@@H]1F [Cpd 261, 4-[6-(1-aminocyclobutyl)pyrazolo[1,5-a]pyridin-3-yl]-2-(difluoromethoxy)-N-[(1R,2S)-2-fluorocyclopropyl]-6-methoxy-benzamide]	< 1.5
COc1cc(-c2cnn3cc(C(C)(C)N)ccc23)cc(OC(F)F)c1C(=O)N[C@@H]1C[C@@H]1F [Cpd 256, 4-[6-(1-amino-1-methyl-ethyl)pyrazolo[1,5-a]pyridin-3-yl]-2-(difluoromethoxy)-N-[(1R,2S)-2-fluorocyclopropyl]-6-methoxy-benzamide]	1.5 to 4.5
COc1cc(-c2cnn3cc(C(C)(C)C#N)ccc23)cc(OC(F)F)c1C(=O)NC1CC1 [Cpd 208, 4-[6-(1-cyano-1-methyl-ethyl)pyrazolo[1,5-a]pyridin-3-yl]-N-cyclopropyl-2-(difluoromethoxy)-6-methoxy-benzamide]	< 1.5
COc1cc(-c2cnn3cc(C4(C#N)CCOCC4)ccc23)cc(OC(F)F)c1C(=O)N[C@@H]1C[C@@H]1F [Cpd 243, 4-[6-(4-cyanotetrahydropyran-4-yl)pyrazolo[1,5-a]pyridin-3-yl]-2-(difluoromethoxy)-N-[(1R,2S)-2-fluorocyclopropyl]-6-methoxy-benzamide]	< 1.5
COc1cc(-c2cnn3cc(C(C)(C)C#N)ccc23)cc(OC)c1C(=O)N[C@@H]1C[C@@H]1F [Cpd 245, 4-[6-(1-cyano-1-methyl-ethyl)pyrazolo[1,5-a]pyridin-3-yl]-N-[(1R,2S)-2-fluorocyclopropyl]-2,6-dimethoxy-benzamide]	< 1.5

What follows are compounds tested on Balb/c mice, IL-23 injected ear (assay: Murine model of psoriatic-like epidermal hyperplasia induced by intradermal injections of IL-23). Settings: mouse, intradermal IL-23; 3 mg/kg p.o. b.i.d.
Type: in vivo
Method: Mouse recombinant IL-23, carrier free (Cat #14-8231) is provided by e-Bioscience (Frankfurt, Germany).
Balb/c mice (female, 18-20 g body weight) were obtained from Janvier Labs (Le Genest-Saint-Isle, France). Mice are kept on a 12 h light/dark cycle. Temperature was maintained at 22° C., food and water are provided ad libitum.
The design of the study was adapted from Rizzo H L. et al. (Rizzo et al. 2011).
On the first day (D1), the mice were shaved around the two ears. For 4 consecutive days (D1 to D4), the mice received a daily intradermal dose of mouse recombinant IL-23 (1 μg/20 μL in PBS/0.1% BSA) in the right pinna ear and 20 μL of PBS/0.1% BSA in the left pinna ear under anesthesia.
From D1 to D5, mice were dosed with test-compound or with vehicle, 1 h prior IL-23 injection.
The thickness of both ears was measured daily with an automatic caliper. Body weight was assessed at initiation and at sacrifice. On fifth day, 2 h after the last dosing, the mice were sacrificed. The pinnae of the ear were cut, excluding cartilage. The pinnae, placed in a vial containing 1 mL of RNAlater® solution.
There were 8 mice per group. The results were expressed as mean±SEM and statistical analysis was performed using one-way ANOVA followed by Dunnett's post-hoc test versus IL-23 vehicle groups.

Structure (SMILES)	ear thickness compared to IL-23 vehicle group
COc1cc(-c2cnc3cc(C4COC4)ccn23)cc(OC(F)F)c1C(=O)NC1CC1 [Cpd 174, N-cyclopropyl-2-(difluoromethoxy)-6-methoxy-4-[7-(oxetan-3-yl)imidazo[1,2-a]pyridin-3-yl]benzamide]	statistically significant decrease

Same assay, conditions: mouse, intradermal IL-23; 10 mg/kg p.o. b.i.d.

Structure (SMILES)	ear thickness compared to IL-23 vehicle group
COc1cc(-c2cnc3cc(C(C)(C)C#N)ccn23)cc(OC(F)F)c1C(=O)NC1CC1 [Cpd 19, 4-[7-(1-cyano-1-methyl-ethyl)imidazo[1,2-a]pyridin-3-yl]-N-cyclopropyl-2-(difluoromethoxy)-6-methoxy-benzamide]	statistically significant decrease

Same assay, conditions: mouse, intradermal IL-23; 30 mg/kg p.o. b.i.d.

Structure (SMILES)	ear thickness compared to IL-23 vehicle group
COc1cc(-c2cnc3cc(C4(C#N)COC4)ccn23)cc(OC(F)F)c1C(=O)NC1CC1 [Cpd 117, 4-[7-(3-cyanooxetan-3-yl)imidazo[1,2-a]pyridin-3-yl]-N-cyclopropyl-2-(difluoromethoxy)-6-methoxy-benzamide]	statistically significant decrease
